Here are results for 24 molecules from US11524938B2, “Aromatic sulfonamide derivatives” (Bayer Pharma Aktiengesellschaft, priority 2016, dated 2022).

For this assay, the target named is T1, human P2X4 (Homo sapiens, UniProt Q99571).
T1 sequence (Q99571 1-388): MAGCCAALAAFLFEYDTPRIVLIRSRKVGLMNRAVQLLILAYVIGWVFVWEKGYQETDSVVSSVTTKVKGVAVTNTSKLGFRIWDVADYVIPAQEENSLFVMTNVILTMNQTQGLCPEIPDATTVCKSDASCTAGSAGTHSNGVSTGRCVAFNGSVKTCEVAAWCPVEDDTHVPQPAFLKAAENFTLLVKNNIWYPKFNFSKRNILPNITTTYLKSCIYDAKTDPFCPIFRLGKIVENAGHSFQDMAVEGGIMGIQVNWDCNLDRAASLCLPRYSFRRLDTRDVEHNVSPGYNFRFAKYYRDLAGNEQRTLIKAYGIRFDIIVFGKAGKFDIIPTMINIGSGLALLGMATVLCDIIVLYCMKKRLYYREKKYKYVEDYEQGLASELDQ
Put plainly: Human P2X4 HEK Cell FLIPR Assay. The settings on record: agonist Bz-ATP at EC80; for Emax: HEK293, HEK293 cells, percentage of maximal inhibition, read-out: Human P2X4 HEK Cells (FLIPR Assay) avg Efficacy [%]; for IC50: HEK293 cells, individual values listed where some fall outside detection range. In kind it is cell-based. The gist of the method:
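Calcium flux read by FLIPR for 120 sec after Bz-ATP challenge at EC80 (established each assay day), following 30 min room-temperature compound preincubation in dye-loaded stable human P2X4 HEK293 cells. Peak RFU over basal normalized to agonist control; IC50, maximal inhibition and Hill coefficient from triplicate means.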

As for `N#Cc1cnn(-c2ccc(NC(=O)Cc3c(F)cccc3Cl)cc2S(N)(=O)=O)c1` [Example 183, 2-(2-Chloro-6-fluorophenyl)-N-[4-(4-cyano-1H-pyrazol-1-yl)-3-sulfamoylphenyl]-acetamide], the Emax came to 96% and the IC50 (in general, the concentration needed to halve the response being measured) came to 39 nM.
Consider `N#Cc1cnn(-c2ccc(NC(=O)Cc3ccccc3C(F)(F)F)cc2S(N)(=O)=O)c1` [Example 184, N-[4-(4-Cyano-1H-pyrazol-1-yl)-3-sulfamoylphenyl]-2-[2-(trifluoromethyl)-phenyl]acetamide], for which the Emax was determined as 96% and the IC50 worked out at 67 nM.
The like results for `N#Cc1cnn(-c2ccc(NC(=O)Cc3cccc(F)c3)cc2S(N)(=O)=O)c1` [Example 185, N-[4-(4-Cyano-1H-pyrazol-1-yl)-3-sulfamoylphenyl]-2-(3-fluorophenyl)acetamide] were, in that order, 71% and 248 nM.
On to `N#Cc1cnn(-c2ccc(NC(=O)Cc3ccc(Cl)cc3Cl)cc2S(N)(=O)=O)c1` [Example 186, N-[4-(4-Cyano-1H-pyrazol-1-yl)-3-sulfamoylphenyl]-2-(2,4-dichlorophenyl)acetamide], for which the Emax was determined as 78% and the IC50 is 40 nM.
For the molecule `N#Cc1cnn(-c2ccc(NC(=O)Cc3c(Cl)cccc3Cl)cc2S(N)(=O)=O)c1` [Example 187, N-[4-(4-Cyano-1H-pyrazol-1-yl)-3-sulfamoylphenyl]-2-(2,6-dichlorophenyl)acetamide], the Emax was found to be 84% and the IC50 was found to be 33 nM.
For the molecule `N#Cc1cnn(-c2ccc(NC(=O)Cc3ccccc3Br)cc2S(N)(=O)=O)c1` [Example 188, 2-(2-Bromophenyl)-N-[4-(4-cyano-1H-pyrazol-1-yl)-3-sulfamoylphenyl]acetamide], the Emax came out at 89% and the IC50 was 31 nM.
Taken in the same sequence, the figures for `N#Cc1cnn(-c2ccc(NC(=O)Cc3ccc(F)c(F)c3)cc2S(N)(=O)=O)c1` [Example 189, N-[4-(4-Cyano-1H-pyrazol-1-yl)-3-sulfamoylphenyl]-2-(3,4-difluorophenyl)acetamide] were 60% and 199 nM.
With `N#Cc1cnn(-c2ccc(NC(=O)Cc3cc(F)cc(F)c3)cc2S(N)(=O)=O)c1` [Example 190, N-[4-(4-Cyano-1H-pyrazol-1-yl)-3-sulfamoylphenyl]-2-(3,5-difluorophenyl)acetamide], the Emax is 58% and the IC50 was 540 nM.
The like results for `N#Cc1cnn(-c2ccc(NC(=O)Cc3cccc(Cl)c3)cc2S(N)(=O)=O)c1` [Example 191, 2-(3-Chlorophenyl)-N-[4-(4-cyano-1H-pyrazol-1-yl)-3-sulfamoylphenyl]acetamide] were, in that order, 76% and 180 nM.
For `N#Cc1cnn(-c2ccc(NC(=O)Cc3ccc(F)cc3)cc2S(N)(=O)=O)c1` [Example 192, N-[4-(4-Cyano-1H-pyrazol-1-yl)-3-sulfamoylphenyl]-2-(4-fluorophenyl)acetamide], the Emax was 69% and the IC50 is 575 nM.
The like results for `N#Cc1cnn(-c2ccc(NC(=O)Cc3ccccc3O)cc2S(N)(=O)=O)c1` [Example 193, N-[4-(4-Cyano-1H-pyrazol-1-yl)-3-sulfamoylphenyl]-2-(2-hydroxyphenyl)acetamide] were, in that order, 84% and 427 nM.
As to `N#Cc1cnn(-c2ccc(NC(=O)Cc3ccc(O)cc3)cc2S(N)(=O)=O)c1` [Example 194, N-[4-(4-Cyano-1H-pyrazol-1-yl)-3-sulfamoylphenyl]-2-(4-hydroxyphenyl)acetamide], the Emax was determined as 84% and the IC50 came to 325 nM.
For the molecule `Cc1ccc(CC(=O)Nc2ccc(-n3cc(C#N)cn3)c(S(N)(=O)=O)c2)cc1` [Example 195, N-[4-(4-Cyano-1H-pyrazol-1-yl)-3-sulfamoylphenyl]-2-(4-methylphenyl)acetamide], the Emax came to 68% and the IC50 worked out at 86 nM.
Turning to `COc1ccc(CC(=O)Nc2ccc(-n3cc(C#N)cn3)c(S(N)(=O)=O)c2)cc1` [Example 196, N-[4-(4-Cyano-1H-pyrazol-1-yl)-3-sulfamoylphenyl]-2-(4-methoxyphenyl)acetamide], the Emax was 75% and the IC50 is 164 nM.
For the molecule `Cc1ccccc1CC(=O)Nc1ccc(-n2cc(C#N)cn2)c(S(N)(=O)=O)c1` [Example 197, N-[4-(4-Cyano-1H-pyrazol-1-yl)-3-sulfamoylphenyl]-2-(2-methylphenyl)acetamide], the Emax amounted to 87% and the IC50 stood at 86 nM.
For the molecule `Cc1cccc(CC(=O)Nc2ccc(-n3cc(C#N)cn3)c(S(N)(=O)=O)c2)c1` [Example 198, N-[4-(4-Cyano-1H-pyrazol-1-yl)-3-sulfamoylphenyl]-2-(3-methylphenyl)acetamide], the Emax came to 94% and the IC50 came out at 136 nM.
Taken in the same sequence, the figures for `CCOc1ccccc1CC(=O)Nc1ccc(-n2cc(C#N)cn2)c(S(N)(=O)=O)c1` [Example 199, N-[4-(4-Cyano-1H-pyrazol-1-yl)-3-sulfamoylphenyl]-2-(2-ethoxyphenyl)acetamide] were 85% and 299 nM.
As for `N#Cc1cnn(-c2ccc(NC(=O)Cc3cccc(F)c3F)cc2S(N)(=O)=O)c1` [Example 200, N-[4-(4-Cyano-1H-pyrazol-1-yl)-3-sulfamoylphenyl]-2-(2,3-difluorophenyl)acetamide], the Emax amounted to 90% and the IC50 was determined as 131 nM.
As to `N#Cc1cnn(-c2ccc(NC(=O)Cc3cccnc3Cl)cc2S(N)(=O)=O)c1` [Example 201, 2-(2-Chloropyridin-3-yl)-N-[4-(4-cyano-1H-pyrazol-1-yl)-3-sulfamoylphenyl]-acetamide], the Emax was found to be 83% and the IC50 was 4330 nM.
Turning to `N#Cc1cnn(-c2ccc(NC(=O)Cc3ccc(F)cc3Cl)cc2S(N)(=O)=O)c1` [Example 202, 2-(2-Chloro-4-fluorophenyl)-N-[4-(4-cyano-1H-pyrazol-1-yl)-3-sulfamoylphenyl]-acetamide], the Emax amounted to 90% and the IC50 was 48 nM.
In the case of `N#Cc1cnn(-c2ccc(NC(=O)Cc3ccccc3OC(F)F)cc2S(N)(=O)=O)c1` [Example 203, N-[4-(4-Cyano-1H-pyrazol-1-yl)-3-sulfamoylphenyl]-2-[2-(difluoromethoxy)phenyl]-acetamide], the Emax stood at 86% and the IC50 was found to be 99 nM.
The like results for `N#Cc1cnn(-c2ccc(NC(=O)Cc3ccccc3OC(F)(F)F)cc2S(N)(=O)=O)c1` [Example 204, N-[4-(4-Cyano-1H-pyrazol-1-yl)-3-sulfamoylphenyl]-2-[2-(trifluoromethoxy)phenyl]-acetamide] were, in that order, 86% and 72 nM.
In the case of `N#Cc1cnn(-c2ccc(NC(=O)Cc3cc(F)c(F)cc3Cl)cc2S(N)(=O)=O)c1` [Example 205, 2-(2-Chloro-4,5-difluorophenyl)-N-[4-(4-cyano-1H-pyrazol-1-yl)-3-sulfamoylphenyl]-acetamide], the Emax stood at 89% and the IC50 is 73 nM.
For the molecule `N#Cc1cnn(-c2ccc(NC(=O)Cc3cccc(C(F)(F)F)c3Cl)cc2S(N)(=O)=O)c1` [Example 206, 2-[2-Chloro-3-(trifluoromethyl)phenyl]-N-[4-(4-cyano-1H-pyrazol-1-yl)-3-sulfamoylphenyl]acetamide], the Emax amounted to 98% and the IC50 is 29 nM.
